For the assay, the system named is CD2F1 mice, L1210 leukemia ip, survival T/C. The assay is described as follows: NCI In Vivo Anticancer Drug Screen. Data for tumor model L1210 Leukemia (intraperitoneal) in CD2F1 (CDF1) mice. The note with it: higher = longer survival. In a few lines:
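Activity against a transplanted murine tumor was judged by comparing the compound group with a vehicle group. The outcome in the treated animals was divided by that in the controls.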

[1] abbreviates: endpoint: mean survival time, dose: 25.0 mg/kg/injection, schedule: Q01DX009 (ip), vehicle: saline with Tween-80.
Where [2] appears, read: endpoint: mean survival time, dose: 50.0 mg/kg/injection, schedule: Q01DX009 (ip), vehicle: saline with Tween-80.
Where [3] appears, read: endpoint: mean survival time, dose: 100.0 mg/kg/injection, schedule: Q01DX009 (ip), vehicle: saline with Tween-80.
The mark [4] stands for this setting: endpoint: mean survival time, dose: 200.0 mg/kg/injection, schedule: Q01DX009 (ip), vehicle: saline with Tween-80.
The mark [5] stands for this setting: endpoint: mean survival time, dose: 400.0 mg/kg/injection, schedule: Q01DX009 (ip), vehicle: saline with Tween-80.
Where [6] appears, read: endpoint: mean survival time, dose: 100.0 mg/kg/injection, schedule: Q04DX003 (ip), vehicle: saline with Tween-80.
Setting [7] is: endpoint: mean survival time, dose: 200.0 mg/kg/injection, schedule: Q04DX003 (ip), vehicle: saline with Tween-80.

Inconclusive results and toxic doses are left out.

For `O=C1CC(=O)C(Br)=C1Br`, the T/C runs as follows: (endpoint: mean survival time, dose: 0.75 mg/kg/injection, schedule: Q01DX009 (ip), vehicle: saline with Tween-80) 95 % of control; (endpoint: mean survival time, dose: 1.5 mg/kg/injection, schedule: Q01DX009 (ip), vehicle: saline with Tween-80) 95 % of control; (endpoint: mean survival time, dose: 3.0 mg/kg/injection, schedule: Q01DX009 (ip), vehicle: saline with Tween-80) 90 % of control.
Take `[N-]=[N+]=[N-]`: the T/C (endpoint: median survival time, dose: 0.75 mg/kg/injection, schedule: Q01DX009 (ip), vehicle: saline) is 101 % of control; the T/C (endpoint: median survival time, dose: 1.5 mg/kg/injection, schedule: Q01DX009 (ip), vehicle: saline) is 101 % of control; the T/C (endpoint: median survival time, dose: 3.0 mg/kg/injection, schedule: Q01DX009 (ip), vehicle: saline) was 93 % of control; the T/C (endpoint: median survival time, dose: 6.0 mg/kg/injection, schedule: Q01DX009 (ip), vehicle: saline) is 103 % of control; the T/C (endpoint: median survival time, dose: 12.0 mg/kg/injection, schedule: Q01DX009 (ip), vehicle: saline) was 92 % of control.
Turning to `NC(CN1CCCCC1)C(=O)O` (stereo unspecified), the T/C (endpoint: mean survival time, dose: 100.0 mg/kg/injection, schedule: Q04DX002 (ip), vehicle: saline with Tween-80) is 98 % of control; the T/C (endpoint: mean survival time, dose: 200.0 mg/kg/injection, schedule: Q04DX002 (ip), vehicle: saline with Tween-80) is 90 % of control; the T/C (endpoint: mean survival time, dose: 400.0 mg/kg/injection, schedule: Q04DX002 (ip), vehicle: saline with Tween-80) was 94 % of control.
Regarding `O=S(=O)(O)c1ccc(O)cc1`, the T/C (endpoint: mean survival time, dose: 100.0 mg/kg/injection, schedule: Q01DX001 (ip), vehicle: saline) was 103 % of control; the T/C (endpoint: mean survival time, dose: 200.0 mg/kg/injection, schedule: Q01DX001 (ip), vehicle: saline) was 108 % of control; the T/C (endpoint: mean survival time, dose: 400.0 mg/kg/injection, schedule: Q01DX001 (ip), vehicle: saline) was 100 % of control.
With `N#CCCC(C#N)(c1cccnc1)N1CCOCC1` (stereo unspecified), the T/C was 93 % of control (endpoint: mean survival time, dose: 12.5 mg/kg/injection, schedule: Q01DX009 (ip), vehicle: Klucel (hydroxypropylcellulose) (HPC)); 97 % of control (endpoint: mean survival time, dose: 25.0 mg/kg/injection, schedule: Q01DX009 (ip), vehicle: Klucel (hydroxypropylcellulose) (HPC)); 109 % of control (endpoint: mean survival time, dose: 25.0 mg/kg/injection, schedule: Q04DX002 (ip), vehicle: saline with Tween-80).
Take `CNc1ccn(C2OC(CO)C(O)C2SC(C)(C)C)c(=O)n1` (stereo unspecified): the T/C reads like this: (endpoint: median survival time, dose: 12.5 mg/kg/injection, schedule: Q01DX005 (ip), vehicle: saline) 105 % of control; (endpoint: median survival time, dose: 25.0 mg/kg/injection, schedule: Q01DX005 (ip), vehicle: saline) 105 % of control; (endpoint: median survival time, dose: 50.0 mg/kg/injection, schedule: Q01DX005 (ip), vehicle: saline) 100 % of control; (endpoint: median survival time, dose: 100.0 mg/kg/injection, schedule: Q01DX005 (ip), vehicle: saline) 102 % of control; (endpoint: median survival time, dose: 200.0 mg/kg/injection, schedule: Q01DX005 (ip), vehicle: saline) 100 % of control.
`CC(C)C(O)C(C)N` (stereo unspecified): the T/C was 113 % of control under setting [1], 95 % of control under setting [2] and 93 % of control under setting [3].
On to `CCCCN(C)N=Nc1ccc(C(N)=O)cc1`, for which the T/C (endpoint: mean survival time, dose: 18.75 mg/kg/injection, schedule: Q01DX009 (ip), vehicle: Klucel (hydroxypropylcellulose) (HPC)) is 107 % of control; the T/C (endpoint: mean survival time, dose: 37.5 mg/kg/injection, schedule: Q01DX009 (ip), vehicle: Klucel (hydroxypropylcellulose) (HPC)) was 113 % of control; the T/C (endpoint: mean survival time, dose: 75.0 mg/kg/injection, schedule: Q01DX009 (ip), vehicle: Klucel (hydroxypropylcellulose) (HPC)) was 121 % of control; the T/C (endpoint: mean survival time, dose: 150.0 mg/kg/injection, schedule: Q01DX009 (ip), vehicle: Klucel (hydroxypropylcellulose) (HPC)) is 106 % of control.
As to `O=P1(N(CCCl)CCCl)OCCC(OO)N1CCCl` (stereo unspecified), the T/C reads like this: (endpoint: mean survival time, dose: 100.0 mg/kg/injection, schedule: Q01DX001 (ip), vehicle: DMSO) 268 % of control; (endpoint: mean survival time, dose: 100.0 mg/kg/injection, schedule: Q01DX001 (ip), vehicle: Klucel (hydroxypropylcellulose) (HPC)) 281 % of control; (endpoint: mean survival time, dose: 200.0 mg/kg/injection, schedule: Q01DX001 (ip), vehicle: Klucel (hydroxypropylcellulose) (HPC)) 309 % of control; (endpoint: mean survival time, dose: 400.0 mg/kg/injection, schedule: Q01DX001 (ip), vehicle: DMSO) 163 % of control.
For `O=P([O-])([O-])O.O=P([O-])([O-])O.O=P([O-])([O-])O.O=P([O-])([O-])O.[Na+].[OH3+].[OH3+].[Pt+2].[Pt+2]`, the T/C reads like this: (endpoint: median survival time, dose: 10.0 mg/kg/injection, schedule: Q04DX003 (ip), vehicle: water) 102 % of control; (endpoint: median survival time, dose: 20.0 mg/kg/injection, schedule: Q04DX003 (ip), vehicle: water) 91 % of control; (endpoint: median survival time, dose: 30.75 mg/kg/injection, schedule: Q04DX003 (ip), vehicle: water) 103 % of control; (endpoint: median survival time, dose: 40.0 mg/kg/injection, schedule: Q04DX003 (ip), vehicle: water) 98 % of control; (endpoint: median survival time, dose: 61.5 mg/kg/injection, schedule: Q04DX003 (ip), vehicle: water) 102 % of control; (endpoint: median survival time, dose: 80.0 mg/kg/injection, schedule: Q04DX003 (ip), vehicle: water) 94 % of control. Besides, the T/C reads like this: (endpoint: median survival time, dose: 123.0 mg/kg/injection, schedule: Q04DX003 (ip), vehicle: water) 104 % of control; (endpoint: median survival time, dose: 246.0 mg/kg/injection, schedule: Q04DX003 (ip), vehicle: water) 110 % of control.
Regarding `CC(=O)OCC1OC(n2cnc3c(=S)nc(N)[nH]c32)CC1OC(C)=O` (stereo unspecified), the T/C was 101 % of control (endpoint: mean survival time, dose: 0.63 mg/kg/injection, schedule: Q01DX005 (ip), vehicle: saline with Tween-80); 117 % of control (endpoint: mean survival time, dose: 1.25 mg/kg/injection, schedule: Q01DX005 (ip), vehicle: saline with Tween-80); 156 % of control (endpoint: mean survival time, dose: 20.0 mg/kg/injection, schedule: Q01DX005 (ip), vehicle: saline with Tween-80).
For the molecule `c1ccc2c3c(ccc2c1)OCN(C12CC4CC(CC(C4)C1)C2)C3`, the T/C under setting [3] is 96 % of control, the T/C under setting [4] was 102 % of control and the T/C under setting [5] is 90 % of control.
Turning to `Nc1ncnc2c1c(-c1nnc3c(n1)-c1ccccc1C3=O)cn2C1OC(CO)C(O)C1O` (stereo unspecified), the T/C runs as follows: (endpoint: mean survival time, dose: 100.0 mg/kg/injection, schedule: Q01DX005 (ip), vehicle: saline) 100 % of control; (endpoint: mean survival time, dose: 200.0 mg/kg/injection, schedule: Q01DX005 (ip), vehicle: saline) 100 % of control.
As for `C1CN(SSN2CCOCC2)CCO1`, the T/C is, setting by setting: under setting [6], 100 % of control; under setting [7], 92 % of control.
For `CCOC(=O)C(Cc1ccccc1OC)P(=O)(OCC)OCC` (stereo unspecified), the T/C (endpoint: mean survival time, dose: 75.0 mg/kg/injection, schedule: Q01DX001 (ip), vehicle: saline) was 100 % of control; the T/C (endpoint: mean survival time, dose: 150.0 mg/kg/injection, schedule: Q01DX001 (ip), vehicle: saline) was 94 % of control; the T/C (endpoint: mean survival time, dose: 300.0 mg/kg/injection, schedule: Q01DX001 (ip), vehicle: saline) was 96 % of control.
With `O=C(O)CCn1c(=O)[nH]c(=O)n(CCC(=O)O)c1=O`, the T/C is 96 % of control under setting [3]; 113 % of control under setting [6]; 100 % of control under setting [4]; 101 % of control under setting [7]; 97 % of control under setting [5]; 98 % of control (endpoint: mean survival time, dose: 400.0 mg/kg/injection, schedule: Q04DX003 (ip), vehicle: saline with Tween-80).
`O=C(OCc1ccccc1)C1CC1` (tested in a mixture with another compound): the T/C was 86 % of control under setting [1]; 101 % of control (endpoint: mean survival time, dose: 50.0 mg/kg/injection, schedule: Q01DX005 (ip), vehicle: saline with Tween-80); 96 % of control under setting [2]; 102 % of control (endpoint: mean survival time, dose: 50.0 mg/kg/injection, schedule: Q04DX002 (ip), vehicle: saline); 93 % of control (endpoint: mean survival time, dose: 100.0 mg/kg/injection, schedule: Q01DX005 (ip), vehicle: saline with Tween-80); 86 % of control under setting [3]. The T/C was 97 % of control (endpoint: mean survival time, dose: 100.0 mg/kg/injection, schedule: Q04DX002 (ip), vehicle: saline); 97 % of control (endpoint: mean survival time, dose: 200.0 mg/kg/injection, schedule: Q01DX005 (ip), vehicle: saline with Tween-80); 86 % of control under setting [4]; 105 % of control (endpoint: mean survival time, dose: 200.0 mg/kg/injection, schedule: Q04DX002 (ip), vehicle: saline); 97 % of control (endpoint: mean survival time, dose: 400.0 mg/kg/injection, schedule: Q04DX002 (ip), vehicle: saline).

These data come from PubChem BioAssay AID256 (DTP/NCI, 2004).
